For 27 compounds, EC1.5 and Emax results are on record in patent US20110039847A1, “AMIDE DERIVATIVES AS SIRTUIN MODULATORS” (Sirtris Pharmaceuticals, Inc, priority 2007, published 2011).

This test addresses T1, SIRT1 (Homo sapiens, UniProt Q96EB6).
T1 sequence (Q96EB6 1-747): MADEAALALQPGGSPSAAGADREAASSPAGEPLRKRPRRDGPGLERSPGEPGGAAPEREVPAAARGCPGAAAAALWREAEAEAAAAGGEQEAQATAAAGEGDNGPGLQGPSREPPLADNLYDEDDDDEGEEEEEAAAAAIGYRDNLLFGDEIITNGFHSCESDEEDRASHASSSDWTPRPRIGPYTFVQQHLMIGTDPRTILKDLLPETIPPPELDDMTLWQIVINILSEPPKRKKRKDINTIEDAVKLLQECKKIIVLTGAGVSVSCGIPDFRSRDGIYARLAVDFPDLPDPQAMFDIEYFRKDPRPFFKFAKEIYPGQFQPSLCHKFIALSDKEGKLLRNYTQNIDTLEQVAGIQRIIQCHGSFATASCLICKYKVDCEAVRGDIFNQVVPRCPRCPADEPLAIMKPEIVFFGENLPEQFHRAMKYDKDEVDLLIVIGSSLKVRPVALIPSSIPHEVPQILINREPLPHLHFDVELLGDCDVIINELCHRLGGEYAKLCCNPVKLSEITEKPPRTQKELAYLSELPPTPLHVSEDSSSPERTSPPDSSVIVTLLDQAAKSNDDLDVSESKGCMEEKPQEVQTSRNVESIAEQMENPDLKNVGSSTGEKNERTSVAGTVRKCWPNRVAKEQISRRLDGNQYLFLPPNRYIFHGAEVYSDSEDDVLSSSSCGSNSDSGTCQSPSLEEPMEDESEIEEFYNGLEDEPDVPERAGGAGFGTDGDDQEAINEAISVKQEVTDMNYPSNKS
In words: Mass spectrometry based SIRT1 deacetylation (activation) assay. Type of test: biochemical. As to conditions: 0.5 μM peptide substrate, 120 μM βNAD+, 10 nM SIRT1, 25 min at 25° C.; for Emax: 25 min, read-out: % Fold Act. (percent maximum fold activation). The source says: A mass spectrometry based assay was used to identify modulators of SIRT1 activity. The mass spectrometry based assay utilizes a peptide having 20 amino acid residues as follows: Ac-EE-K(biotin)-GQSTSSHSK(Ac)NleSTEG-K(5TMR)-EE-NH2 (SEQ ID NO: 1) wherein K(Ac) is an acetylated lysine residue and Nle is a norleucine. The peptide is labeled with the fluorophore 5TMR (excitation 540 nm/emission 580 nm) at the C-terminus. The sequence of the peptide substrate is based on p53 with several modifications. In addition, the methionine residue naturally present in the sequence was replaced with the norleucine because the methionine may be susceptible to oxidation during synthesis and purification.
The mass spectrometry assay is conducted as follows: 0.5 μM peptide substrate and 120 μM βNAD^+ is incubated with 10 nM SIRT1 for 25 minutes at 25° C. in a reaction buffer (50 mM Tris-acetate pH 8, 137 mM NaCl, 2.7 mM KCl, 1 mM MgCl2, 5 mM DTT, 0.05% BSA). Test compounds may be added to the reaction as described above. […] After the 25 minute incubation with SIRT1, 10 μL of 10% formic acid is added to stop the reaction. Reactions are sealed and frozen for later mass spec analysis. Determination of the mass of the substrate peptide allows for precise determination of the degree of acetylation (i.e. starting material) as compared to deacetylated peptide (product).
A control for inhibition of sirtuin activity is conducted by adding 1 μL of 500 mM nicotinamide as a negative control at the start of the reaction (e.g., permits determination of maximum sirtuin inhibition). A control for activation of sirtuin activity is conducted using 10 nM of sirtuin protein, with 1 μL of DMSO in place of compound, to determine the amount of deacetylation of the substrate at a given timepoint within the linear range of the assay. This timepoint is the same as that used for test compounds and, within the linear range, the endpoint represents a change in velocity.
For the above assay, SIRT1 protein was expressed and purified as follows. […] The protein was expressed by induction with 1 mM IPTG as an N-terminal His-tag fusion protein at 18° C. overnight and harvested at 30,000×g. Cells were lysed with lysozyme in lysis buffer (50 mM Tris-HCl, 2 mM Tris[2-carboxyethyl]phosphine (TCEP), 10 μM ZnCl2, 200 mM NaCl) and further treated with sonication for 10 min for complete lysis. The protein was purified over a Ni-NTA column (Amersham) and fractions containing pure protein were pooled, concentrated and run over a sizing column (Sephadex S200 26/60 global). The peak containing soluble protein was collected and run on an Ion-exchange column (MonoQ). Gradient elution (200 mM-500 mM NaCl) yielded pure protein. This protein was concentrated and dialyzed against dialysis buffer (20 mM Tris-HCl, 2 mM TCEP) overnight. The protein was aliquoted and frozen at −80° C. until further use.

Molecules are shown by their SMILES. Where a name gives a salt, the structure may show the parent alone. Some results are limits rather than exact numbers.

Consider `CN(C)CCNc1cc(C(=O)Nc2ccccc2-c2ncc(-c3ccccc3)s2)nc(-c2ccccc2)n1` [Compound 13], for which the EC1.5 entry is reported as “A (EC1.5≦1 uM)” and the Emax was in the range of 150 to 300%.

Consider `Cc1nnc(-c2ccccc2NC(=O)c2cc(NCCN(C)C)nc(-c3ccccc3)n2)o1` [Compound 20], for which the EC1.5 result is “B (EC1.5>1 and ≦10 uM)”; the Emax was not below 300%.

Regarding `CCN(CC)CCNc1cc(C(=O)Nc2ccccc2C(C)=O)nc(-c2ccccc2)n1` [Compound 135], the EC1.5 entry is “B (EC1.5>1 and ≦10 uM)”; the Emax was not below 300%.

For `CCCCNC(=O)c1ccccc1NC(=O)c1cc(NCCN(C)C)nc(-c2ccccc2)n1` [Compound 123, N-(2-(butylcarbamoyl)phenyl)-6-(2-(dimethylamino)ethylamino)-2-phenylpyrimidine-4-carboxamide], the EC1.5 entry was “C (EC1.5>10 uM)” and the Emax is less than 150%.

For `CCN(CCN(C)C)c1cc(C(=O)Nc2ccccc2-c2nnc(NC(=O)N3CCOCC3)s2)nc(-c2ccccc2)n1` [Compound 113], the EC1.5 entry is recorded as “A (EC1.5≦1 uM)” and the Emax was not below 300%.

Regarding `COCCN(CCOC)c1cc(C(=O)Nc2ccccc2-c2nnc(C(=O)N3CCOCC3)s2)nc(-c2ccccc2)n1` [Compound 92], the EC1.5 entry is listed as “A (EC1.5≦1 uM)” and the Emax is not below 300%.

With `CN(C)CCNc1cc(C(=O)Nc2ccccc2-c2nncs2)nc(-c2ccccc2)n1` [Compound 26], the EC1.5 entry is “A (EC1.5≦1 uM)” and the Emax is not below 300%.

Turning to `CN(C)CCNc1cc(C(=O)Nc2ccccc2C(=O)Nc2cc(Cl)ccc2Cl)nc(-c2ccccc2)n1` [Compound 161, N-(2-(2,5-dichlorophenylcarbamoyl)phenyl)-6-(2-(dimethylamino)ethylamino)-2-phenylpyrimidine-4-carboxamide], the EC1.5 result was “B (EC1.5>1 and ≦10 uM)”; the Emax lay in the range of 150 to 300%.

As to `O=C1CN(c2cc(C(=O)Nc3ccccc3-c3nnc(N4CCN5CCC[C@H]5C4)s3)nc(-c3ccccc3)n2)CCN1` [Compound 118], the EC1.5 entry is recorded as “A (EC1.5≦1 uM)” and the Emax was in the range of 150 to 300%.

Take `CCc1ccccc1NC(=O)c1cc(NCCN(C)C)nc(-c2ccccc2)n1` [Compound 1]: the EC1.5 entry is reported as “C (EC1.5>10 uM)” and the Emax was in the range of 150 to 300%.

Regarding `CN(C)CCNc1cc(C(=O)Nc2ccccc2-c2ncc(C(C)(C)C)o2)nc(-c2ccccc2)n1` [Compound 39], the EC1.5 result was “B (EC1.5>1 and ≦10 uM)”; the Emax was 150 to 300%.

As for `CNCCN(C)c1cc(C(=O)Nc2ccccc2-c2nnc(-c3ccccc3)s2)nc(-c2ccccc2)c1` [Compound 44], the EC1.5 entry is reported as “A (EC1.5≦1 uM)” and the Emax was not below 300%.

As to `CC(C)(C)c1cnc(-c2ccccc2NC(=O)c2cc(N3CCOCC3)cc(-c3ccccc3)n2)o1` [Compound 70], the EC1.5 result is listed as “A (EC1.5≦1 uM)” and the Emax lay in the range of 150 to 300%.

For the compound `CCN(CCN(C)C)c1cc(C(=O)Nc2ccccc2-c2ncc(C(C)(C)C)s2)nc(-c2ccccc2)c1` [Compound 42], the EC1.5 entry is reported as “A (EC1.5≦1 uM)” and the Emax was in the range of 150 to 300%.

`COC(=O)c1ccccc1NC(=O)c1cc(NCCN(C)C)nc(-c2ccccc2)n1` [Compound 5]: the EC1.5 entry was “A (EC1.5≦1 uM)” and the Emax was not below 300%.

As to `CCN(CCN(C)C)c1cc(C(=O)Nc2ccccc2-c2nnc(-c3ccccc3)s2)nc(-c2ccccc2)n1` [Compound 36], the EC1.5 entry is reported as “A (EC1.5≦1 uM)” and the Emax fell in the range of 150 to 300%.

As for `O=C1CN(c2cc(C(=O)Nc3ccccc3-c3nnc(N4CCOCC4)s3)nc(-c3ccccc3)n2)CCN1` [Compound 103], the EC1.5 result is on record as “A (EC1.5≦1 uM)” and the Emax was not below 300%.

On to `CCN(CCN(C)C)c1cc(C(=O)Nc2ccccc2-c2nnc(C3CCOCC3)s2)nc(-c2ccccc2)n1` [Compound 93, 6-((2-(dimethylamino)ethyl)(ethyl)amino)-2-phenyl-N-(2-(5-(tetrahydro-2H-pyran-4-yl)-1,3,4-thiadiazol-2-yl)phenyl)pyrimidine-4-carboxamide hydrochloride], for which the EC1.5 entry is “A (EC1.5≦1 uM)” and the Emax is not below 300%.

Take `COCCNC(=O)c1ccccc1NC(=O)c1cc(NCCN(C)C)nc(-c2ccccc2)n1` [Compound 122, 6-(2-(dimethylamino)ethylamino)-N-(2-(2-methoxyethylcarbamoyl)phenyl)-2-phenylpyrimidine-4-carboxamide]: the EC1.5 entry is “C (EC1.5>10 uM)” and the Emax is not below 300%.

As to `CN(C)CCNc1cc(C(=O)Nc2ccccc2C(=O)Nc2cccnc2)nc(-c2ccccc2)n1` [Compound 155, 6-(2-(dimethylamino)ethylamino)-2-phenyl-N-(2-(pyridin-3-ylcarbamoyl)phenyl)pyrimidine-4-carboxamide], the EC1.5 result was “A (EC1.5≦1 uM)” and the Emax was not below 300%.

On to `CCCc1nnc(-c2ccccc2NC(=O)c2cc(N(CC)CCN(C)C)nc(-c3ccccc3)n2)s1` [Compound 79], for which the EC1.5 entry is “A (EC1.5≦1 uM)” and the Emax is not below 300%.

Regarding `CN(C)CCNc1cc(C(=O)Nc2ccccc2C(=O)Nc2cccc(S(C)(=O)=O)c2)nc(-c2ccccc2)n1` [Compound 154, 6-(2-(dimethylamino)ethylamino)-N-(2-(3-(methylsulfonyl)phenylcarbamoyl)phenyl)-2-phenylpyrimidine-4-carboxamide], the EC1.5 entry is listed as “A (EC1.5≦1 uM)” and the Emax is not below 300%.

As to `CCN(CCN(C)C)c1cc(C(=O)Nc2ccccc2C(=O)NC2CCCNC2)nc(-c2ccccc2)n1` (stereo not drawn) [Compound 174, 6-((2-(dimethylamino)ethyl)(ethyl)amino)-2-phenyl-N-(2-(piperidin-3-ylcarbamoyl)phenyl)pyrimidine-4-carboxamide], the EC1.5 entry was “B (EC1.5>1 and ≦10 uM)”; the Emax was not below 300%.

With `CC(O)c1ccccc1NC(=O)c1cc(NCCN(C)C)nc(-c2ccccc2)n1` (stereo not drawn) [Compound 133], the EC1.5 entry was “C (EC1.5>10 uM)” and the Emax lay within 150 to 300%.

Consider `CCN1CCN(c2cc(C(=O)Nc3ccccc3-c3nnc(N4CCOCC4)s3)nc(-c3ccccc3)n2)CC1=O` [Compound 104], for which the EC1.5 result is listed as “A (EC1.5≦1 uM)” and the Emax was 150 to 300%.

With `CN(C)CCNc1cc(C(=O)Nc2ccccc2C(=O)N2CCCC2)nc(-c2ccccc2)n1` [Compound 120, 6-(2-(dimethylamino)ethylamino)-2-phenyl-N-(2-(pyrrolidine-1-carbonyl)phenyl)pyrimidine-4-carboxamide], the EC1.5 result is “C (EC1.5>10 uM)” and the Emax was not below 300%.

`CCN(CCN(C)C)c1cc(C(=O)Nc2ccccc2C(=O)NC2CCN(C(=O)OC(C)(C)C)CC2)nc(-c2ccccc2)n1` [Compound 166, tert-butyl 4-(2-(6-((2-(dimethylamino)ethyl)(ethyl)amino)-2-phenylpyrimidine-4-carboxamido)benzamido)piperidine-1-carboxylate]: the EC1.5 result is “B (EC1.5>1 and ≦10 uM)”; the Emax is 150 to 300%.
